Molecules are shown by their SMILES. Converted amounts (≈) assume the structure as drawn.

One may read the IC50 as the concentration that inhibits the measured activity by half.

The experiment concerns KB. Put plainly: Cytotoxicity against human KB cells. It is filed as functional, cell-based.
Compound `CC(C)=CCc1cc(-c2cc3cc4c(cc3o2)OCO4)c(O)cc1O` yielded an IC50 of 8 µg/mL (≈ 23.6 µM).

Take `C=C(C)C(CC=C(C)C)Cc1c(O)cc(O)c2c(=O)c(O)c(-c3ccc(O)cc3)oc12` (stereo not given): the IC50 was 24.3 µg/mL (≈ 57.5 µM).

The compound `COc1cc2c(c(O)c1C(=O)/C=C/c1ccc(O)cc1O)CC(CC=C(C)C)C(C)(C)O2` (stereo not given) [CYCLOKURARIDIN] showed an IC50 of 15.1 µg/mL (≈ 34.4 µM).

Compound `CC(C)=CCOc1cc(O)c2c(c1CC=C(C)C)OC(c1ccc(O)cc1O)CC2=O` (stereo not given) [SOPHORAFLAVANONE L] displayed an IC50 of 7.1 µg/mL (≈ 16.7 µM).

`C=C(C)C(CC=C(C)C)Cc1c(O)cc(OC)c(C(=O)C(=O)c2ccc(O)cc2O)c1O` (stereo not given) [SOPHORADIONE]: the IC50 came out at 29.4 µg/mL (≈ 66.7 µM).

Source of the values: ChEMBL document CHEMBL1158045, “Phenolic constituents of the roots of Sophora flavescens” (J Nat Prod, 2006).
